ChEMBL document CHEMBL1153708, “Synthesis and evaluation of a thio analogue of duocarmycin SA” (Bioorg Med Chem Lett, 2009)
Calls of active or inactive are those of the source. The calls are words filed in the database; no cut-off is given here.

Experiments:
L1210 = test: Cytotoxicity against mouse L1210 cells; assay type: functional, cell-based
Nucleic Acid = test: Induction of w794 DNA alkylation at 10 uM after 24 hrs by PAGE; assay type: nucleic-acid assay

| Compound | IC50 (L1210) [nM] | Activity (Nucleic Acid) |
| --- | --- | --- |
| COC(=O)c1cc2c(s1)C(=O)C=C1N(C(=O)c3cc4cc(OC)c(OC)c(OC)c4[nH]3)C[C@H]3C[C@]123 | 0.007 |  |
| COC(=O)c1cc2c(s1)C(=O)C=C1N(C(=O)c3cc4cc(OC)c(OC)c(OC)c4[nH]3)C[C@@H]3C[C@@]123 | 0.06 | Active |
| COC(=O)c1cc2c([nH]1)C(=O)C=C1N(C(=O)OC(C)(C)C)C[C@@H]3C[C@@]123 | 60 |  |
| COC(=O)c1cc2c(s1)C(=O)C=C1N(C(=O)OC(C)(C)C)C[C@@H]3C[C@@]123 | 55 |  |
| COC(=O)c1cc2c([nH]1)C(=O)C=C1N(C(=O)c3cc4cc(OC)c(OC)c(OC)c4[nH]3)C[C@H]3C[C@]123 |  | Active |
| COC(=O)c1cc2c(s1)C(=O)C=C1N(C(=O)OC(C)(C)C)C[C@H]3C[C@]123 | 6 |  |
| COC(=O)c1cc2c([nH]1)C(=O)C=C1N(C(=O)c3cc4cc(OC)c(OC)c(OC)c4[nH]3)C[C@@H]3C[C@@]123 |  | Active |
